“And” between values parts separate entries of the source, which are not always exact repeats. Identical values can stand only once. Like-named read-outs stand apart in the source and are kept apart here.
Tests used:
[1] = test system: adult human primary ventricular trabeculae; test: Action potential recordings from adult human ventricular trabeculae (sharp electrode)
hERG [2] = details: ref Crumb et al., 2016, cited from earlier work
[3] = test system: IBa or Ba2+ current through CaV1.2 channels; details: read-out: IBa (Ba2+ current through CaV1.2) IC50; prior study; 36 °C; ref Crumb et al., 2016; cited from earlier work
[4] = test system: Ba2+ current through CaV1.2 channels; design: method as in Ren et al., 2022; details: ∼37 °C; ref Ren et al., 2022; cited from earlier work
INaL (NaV1.5 channels) = details: prior study, ref Crumb et al., 2016, cited from earlier work; for IC50: read-out: INaL IC50, veratridine, 36 °C
[5] = test system: adult human primary ventricular trabeculae; details: mexiletine at 3X concentration as tested here; ref Qu et al., 2017; cited from earlier work
INaL = test system: INaL; design: method as in Wu et al., 2019; details: room temperature, ref Wu et al., 2019, cited from earlier work
[6] = test system: hERG1a and hERG1a/1b channels; details: cited from earlier work
[7] = target: hERG current (HEK293 cells expressing the hERG1a subunit) (Homo sapiens, UniProt Q12809); test: cell-based
[8] = used to calculate free Cmax; no reference given; cited from earlier work
clinical ECG = details: lidocaine or mexiletine co-administered with dofetilide; diltiazem with moxifloxacin; ref Johannesen et al., 2016; cited from earlier work
[9] = calculated with MW and protein binding; ref Johannesen et al., 2016; cited from earlier work
hERG [10] = target: hERG (Homo sapiens, UniProt Q12809); test: in vitro; details: HEK293 cells stably expressing the hERG1a subunit, pH 7.4
[11] = diltiazem 3.84 then 38.4 µM or nifedipine 0.23 then 1 µM, alone

Chain of hERG (Homo sapiens, UniProt Q12809) (Q12809 whole entry): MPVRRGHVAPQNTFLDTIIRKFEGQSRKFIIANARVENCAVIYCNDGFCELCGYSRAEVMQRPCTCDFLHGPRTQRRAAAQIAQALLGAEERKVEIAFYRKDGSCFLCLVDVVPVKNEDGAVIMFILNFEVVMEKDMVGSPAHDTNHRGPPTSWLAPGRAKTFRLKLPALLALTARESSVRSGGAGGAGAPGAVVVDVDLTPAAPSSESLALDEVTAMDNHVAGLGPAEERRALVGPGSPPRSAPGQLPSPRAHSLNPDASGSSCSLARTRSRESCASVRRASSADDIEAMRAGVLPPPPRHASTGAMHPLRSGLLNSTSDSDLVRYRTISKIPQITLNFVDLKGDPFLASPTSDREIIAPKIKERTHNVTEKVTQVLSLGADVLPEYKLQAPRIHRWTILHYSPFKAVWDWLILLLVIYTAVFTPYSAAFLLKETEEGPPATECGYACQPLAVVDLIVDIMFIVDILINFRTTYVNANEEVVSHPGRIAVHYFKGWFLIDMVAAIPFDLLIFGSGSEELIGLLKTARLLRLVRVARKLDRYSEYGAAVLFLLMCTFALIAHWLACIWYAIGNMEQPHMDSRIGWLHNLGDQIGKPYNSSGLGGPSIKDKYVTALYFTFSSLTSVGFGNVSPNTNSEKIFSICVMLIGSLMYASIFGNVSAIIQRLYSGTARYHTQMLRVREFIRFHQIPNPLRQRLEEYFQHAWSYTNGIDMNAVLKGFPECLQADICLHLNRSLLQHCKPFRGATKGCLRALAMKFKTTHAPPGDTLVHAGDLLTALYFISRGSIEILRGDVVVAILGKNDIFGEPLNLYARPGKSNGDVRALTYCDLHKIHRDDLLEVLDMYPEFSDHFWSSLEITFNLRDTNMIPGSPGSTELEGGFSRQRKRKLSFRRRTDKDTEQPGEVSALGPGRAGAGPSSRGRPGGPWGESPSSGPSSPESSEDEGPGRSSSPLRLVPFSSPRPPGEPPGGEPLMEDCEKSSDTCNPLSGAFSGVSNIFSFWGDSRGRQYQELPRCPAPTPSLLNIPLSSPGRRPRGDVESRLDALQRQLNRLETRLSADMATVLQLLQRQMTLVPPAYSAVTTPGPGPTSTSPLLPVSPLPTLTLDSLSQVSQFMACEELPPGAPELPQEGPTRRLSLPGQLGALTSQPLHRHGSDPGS
Chain of hERG current (HEK293 cells expressing the hERG1a subunit) (Q12809 whole entry): as above

COc1ccc([C@@H]2Sc3ccccc3N(CCN(C)C)C(=O)[C@@H]2OC(C)=O)cc1 [diltiazem]
AP triangulation [1, 11]: resulting in AP triangulation
hERG current inhibition when 50% of CaV1.2 channels were blocked (hERG [2]; prior study): no inhibition
IC50 [3]: 0.112 µM
IC50 [4]: 0.8 µM
INaL inhibition when 50% of CaV1.2 channels were blocked (INaL (NaV1.5 channels)): no inhibition
IC50 (INaL (NaV1.5 channels)): 24.5 µM

CN(CCOc1ccc(NS(C)(=O)=O)cc1)CCc1ccc(NS(C)(=O)=O)cc1 [dofetilide]
AP triangulation (APD90 minus APD30) ([1]; dofetilide 0.1 µM alone, 1 Hz): resulting in AP triangulation
AP triangulation ([1]; dofetilide in the presence of diltiazem or nifedipine): induced AP triangulation

O=C(NCC1CCCCN1)c1cc(OCC(F)(F)F)ccc1OCC(F)(F)F (stereo not shown) [flecainide]
AP height [5]: reduced AP height

Nc1nnc(-c2cccc(Cl)c2Cl)c(N)n1 [lamotrigine]
AP height [5]: reduced AP height

CCN(CC)CC(=O)Nc1c(C)cccc1C [lidocaine]
IC50 (INaL; read-out: INaL IC50 obtained in ATX-II): 31.7 µM
IC50 (INaL; read-out: INaL IC50 obtained in veratridine): 395 µM

CCC(=O)C(CC(C)N(C)C)(c1ccccc1)c1ccccc1 (stereo not shown) [methadone]
pharmacological difference between hERG1a and hERG1a/1b channels [6]: no pharmacological differences

Cc1cccc(C)c1OCC(C)N (stereo not shown) [mexiletine]
IC50 [7]: 55.6 µM
hERG current inhibition (hERG [2]; 10 μM, highest concentration tested in prior study): ~10%
percent protein binding (PB) [8]: 55%
IC50 [3]: 38.2 µM
effect on hERG block-induced QTC and J-TpeakC prolongation (clinical ECG): shortened by co-administration
free clinical Cmax [9]: 3.6 µM
inhibition at 10 µM (hERG [10]): ~20%
AP height [5]: reduced AP height
IC50 (INaL (NaV1.5 channels)): 9.3 µM and 9 µM

C=CCN1CC[C@]23c4c5ccc(O)c4O[C@H]2C(=O)CC[C@@]3(O)[C@H]1C5 [naloxone]
pharmacological difference between hERG1a and hERG1a/1b channels ([6]; ref Tran et al., 2020): no pharmacological differences

O=C1CC[C@@]2(O)[C@H]3Cc4ccc(O)c5c4[C@@]2(CCN3CC2CC2)[C@H]1O5 [naltrexone]
pharmacological difference between hERG1a and hERG1a/1b channels ([6]; ref Tran et al., 2020): no pharmacological differences

COC(=O)C1=C(C)NC(C)=C(C(=O)OC)C1c1ccccc1[N+](=O)[O-] [nifedipine]
AP triangulation [1, 11]: no AP triangulation

COc1ccccc1OCC(O)CN1CCN(CC(=O)Nc2c(C)cccc2C)CC1 (stereo not shown) [ranolazine]
AP height [5]: did not

buprenorphine
pharmacological difference between hERG1a and hERG1a/1b channels [6]: no pharmacological differences

Source: article PMC12640937, “Integrating drug effects on individual cardiac ionic currents and cardiac action potentials to understand nonclinical translation to clinical ECG changes” (Frontiers in Pharmacology, 2025)
